Target: T1, full length AKT1 (Homo sapiens, UniProt P31749)
T1 construct: Full-length human AKT1 gene was amplified by PCR; His tag (from vector pFastBacHTb; N-terminal position is own knowledge of the vector) (N); made in house; host or cells: baculovirus; Sf9 / T. ni insect cells
Experiment: Full-length AKT enzyme assay (substrate phosphorylation, SPA)
Assay type: biochemical
Conditions: in at least one experimental run; pIC50 = -log(IC50), IC50 in molar units; 4 uM ATP, 10 nM activated AKT enzyme; read-out: pIC50 against full length AKT1 (converted)
Description: Cloning of Full-Length Human (FL) AKT1:
Full-length human AKT1 gene was amplified by PCR from a plasmid containing myristylated-AKT1-ER (gift from Robert T. Abraham, Duke University under MTA, described in Klippel et al. in Molecular and Cellular Biology 1998 Volume 18 p. 5699) using the 5′ primer: SEQ. ID NO: 2
5′ […] 3′ and the 3′ primer: SEQ. ID NO: 3 […] 3′. The 5′ primer included a BamHl site and the 3′primer included an Xhol site for cloning purposes. The resultant PCR product was subcloned in pcDNA3 as a BamHl/Xhol fragment. A mutation in the sequence (TGC) coding for a Cysteine^25 was converted to the wild-type AKT1 sequence (CGC) coding for an Arginine^25 by site-directed mutagenesis using the QuikChange® Site Directed Mutagenesis Kit (Stratagene). The AKT1 mutagenic primer: SEQ. ID NO: 4 5′ […] and selection primer: SEQ. […] For expression/purification purposes, AKT1 was isolated as a BamHl/Xhol fragment and cloned into the BamHl/Xhol sites of pFastbacHTb (Invitrogen).
Expression was done using the BAC-to-BAC Baculovirus Expression System from Invitrogen (catalog #10359-016). […]
Compounds of the present invention were tested for AKT 1, 2, and 3 protein serine kinase inhibitory activity in substrate phosphorylation assays. […] Substrate phosphorylation was detected by the following procedure. […]

T1 sequence (P31749 whole entry): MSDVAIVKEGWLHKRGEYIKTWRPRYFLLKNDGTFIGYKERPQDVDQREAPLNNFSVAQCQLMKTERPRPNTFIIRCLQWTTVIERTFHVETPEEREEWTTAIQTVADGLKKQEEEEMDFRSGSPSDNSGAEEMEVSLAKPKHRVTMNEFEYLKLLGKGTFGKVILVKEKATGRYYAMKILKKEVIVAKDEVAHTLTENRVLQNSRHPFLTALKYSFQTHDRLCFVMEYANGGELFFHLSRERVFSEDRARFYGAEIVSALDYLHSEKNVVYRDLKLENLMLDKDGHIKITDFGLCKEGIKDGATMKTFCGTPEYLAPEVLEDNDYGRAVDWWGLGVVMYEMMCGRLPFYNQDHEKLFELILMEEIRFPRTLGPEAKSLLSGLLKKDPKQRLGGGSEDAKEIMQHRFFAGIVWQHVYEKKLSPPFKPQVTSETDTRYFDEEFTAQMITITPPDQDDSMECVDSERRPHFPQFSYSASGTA

In the case of Cn1nccc1-n1cc(C(=O)N[C@H](CN)Cc2cccc(F)c2)cc1Cl [Example 2, N-{(1S)-2-amino-1-[(3-fluorophenyl)methyl]ethyl}-5-chloro-1-(1-methyl-1H-pyrazol-5-yl)-1H-pyrrole-3-carboxamide], the IC50 is reported as 6.31 nM.
